According to patent publication US20240058316A1, “PRODRUG OF A PHENOLIC TRPV1 AGONIST FOR THE TREATMENT OF PAIN” (Concentric Analgesics, Inc., priority 2020, published 2024):

How the values were obtained:
[1] = background statement; cited from earlier work
[2] = tested on: postoperative pain after a bunionectomy; experiment: Phase 2 randomized, double-blind, placebo-controlled study in subjects undergoing bunionectomy; type: in vivo, human; conditions: for reduction in opioid consumption: FIG. 3
Protocol: Compound 1 was investigated as a potential therapy for treatment of pain following bunionectomy. Compound 1 was administered (injected and instilled) directly into the postoperative wound during the surgery. This study is a follow-on placebo-controlled efficacy and safety study which includes assessments of wound healing and a PK study in enrolled subjects.
• This trial was designed to determine the efficacy of study treatment (Compound 1 vs. placebo) infiltrated/instilled during surgery in treating postoperative pain after a bunionectomy in the setting of multimodal analgesia in addition to a Mayo block with bupivacaine in the first 24 h (FIG. 1).
Protocol: This Phase 2, multi-center, randomized, double-blind, placebo-controlled, parallel design study evaluated a single dose of one of three Compound 1 dose groups vs. placebo injected during an elective BUNX with a multimodal analgesia regimen including an NSAID and regional Mayo block with bupivacaine. The study was conducted in two parts: • Inpatient period which continued to 96h after completion of study treatment injection (TO) or T96h. • Outpatient period which began on discharge from the inpatient unit through various follow visits to D29±2 (W4) after surgery, or if necessary for ongoing safety assessments, to D36±2 (W5).
Subjects underwent unilateral transpositional first metatarsal osteotomy for the correction of hallux valgus deformity (bunionectomy or BUNX). The surgery was performed under light to moderate sedation anesthesia (what constitutes this level of sedation and the additional anesthetic medications used per discretion of the anesthesiologist). In accordance with standard of care, light to moderate sedation was supplemented with a Mayo block to produce surgical anesthesia and postoperative analgesia. After administering light to moderate sedation, but prior to surgery, performed a Mayo block by infiltrating 0.5% bupivacaine hydrochloride (up to 30 mL total volume, 150 mg) at least 3 cm proximal to the “surgical site”. The Mayo block was performed at 15-30 minutes prior to study treatment dosing. “Surgical site” is defined as the area extending approximately 2-3 cm in all directions (lateral/medial/proximal/distal) from the incision site and surrounding tissues which may be affected by the infiltration of study treatment.
After the surgery, subjects were monitored for 96 hours in an inpatient unit. Safety and efficacy evaluations were performed. […] Subjects were required to meet certain pre-specified criteria prior to discharge.
T0 is the time that the study treatment injection/instillation is completed.
Following surgery, subjects were transferred to the appropriate recovery unit where they underwent various assessments over the next 96 hours (end of surgery [EOS] to T96h). In addition to the Mayo block noted above, a multimodal analgesia regimen included the following during the immediate postoperative period: • Ketorolac 30 mg IV (a non-steroidal anti-inflammatory drug (NSAID) to be administered intraoperatively before the end of surgery. Per investigator discretion, adjust the dose as necessary for subject age and medical condition. • Acetaminophen 1000 mg IV to be administered intraoperatively before the end of surgery.
After the non-opioid analgesics noted above has been administered, no additional NSAIDs or acetaminophen were administered during the inpatient phase of the study (through T96h). Additionally, the following rescue medication was able to be administered for any moderate to severe breakthrough pain during the inpatient period: • PO oxycodone 5 mg prn q2h in the first 12 hours after surgery for moderate or severe pain (≥4) as reported by subjects using the 0 to 10 numerical rating scale of current pain intensity (NRS). • PO oxycodone 5 mg prn q4h from 12 to 96 hours after surgery for moderate or severe pain (NRS≥4).
After surgery, subjects were monitored for 96 hours (through T96h) at the trial site as an inpatient.

[3] = tested on: pain in subjects undergoing surgery to repair a ventral hernia; experiment: Randomized, double-blind, placebo-controlled study in subjects undergoing ventral hernia repair (laparotomy); type: in vivo, human
Protocol: Using the general delivery technique identified in Part A, this dose, concentration and volume will be assessed compared to a placebo in a pilot, double-blind, randomized, parallel-group design (see Figure). […] Study treatment was administered intraoperatively as a single administration via infiltration/instillation into the “surgical site” prior to wound closure. In general, the intent was to deliver local anesthetic into the surgical site “on the way in” (upon adequate exposure of and prior to incision/dissection of target tissues). […] The “surgical site” is defined as the area extending approximately at least 2-3 cm in all directions (lateral/medial/proximal/distal/deep) from the margins of substantially all tissue traumatized by the surgical procedure, i.e., all tissue dissected, cut, electrocauterized (bovied), sutured or tacked, including both deep and superficial areas. The surgical site include sthe full area of surgical mesh placement. […] The surgery was performed under general anesthesia with the following guidelines: • Inhaled anesthetic or propofol infusion with or without nitrous oxide (N20). • Adequate optional premedication typically with midazolam (up to 5 mg), fentanyl (up to 100 mcg), more can be given if indicated • Supplemental anesthesia and sedation will be per institutional guidelines Intra-operative titration of intravenous (IV) fentanyl, including during emergence, will be per institutional guidelines. In addition, patients received bupivacaine hydrochloride (BupiHCl) 175 mg delivered as follows: • Prior to start of surgery under ultrasound guidance: • BupiHCl 0.25%, 30 mL (75 mg) diluted with 10 mL of normal saline to a volume of 40 mL delivered as a rectus block with 20 mL on each side. • Immediately before/after surgical incision: • BupiHCl 0.25%, 40 mL (100 mg), may be diluted in up to 110 mL of normal saline to a total volume of not more than 150 mL: Infiltration of abdominal wall, anterior rectus abdominis sheath, posterior rectus abdominis sheath, other fascia, peritoneum (including circumferential areas of intended mesh placement) Standard supplemental anesthetic and perioperative care was provided per institutional guidelines. This typically included (but not be limited to) steps to ensure preservation of intraoperative normothermia (including the use of preoperative and intraoperative forced-air warming) and deep venous thrombosis prophylaxis. Patients received general anesthesia and bilateral rectus blocks. […]

[4] = Aqueous solubility (descriptive statement); type: physicochemical
[5] = tested on: pain following TKA surgery; experiment: Phase 1/2 randomized, double-blind, placebo-controlled study in patients undergoing total knee arthroplasty (TKA); type: in vivo, human
Protocol: • This is a two-part, Phase 1/2, randomized, double-blind, placebo-controlled study. In Part A, 2 or more exploratory sequential dose-escalation cohorts will be evaluated, each with administration of a single dose of Compound 1 or placebo infiltrated/instilled during surgery in patients undergoing TKA (FIG. 5).
• 1. Cohort #1: total N=8 patients randomized 3:1 Compound 1 36 mg in 120 mL (0.3 mg/mL) or placebo 120 mL • 2. Cohort #2: total N=8 patients randomized 3:1 Compound 1 60 mg in 120 mL (0.5 mg/mL) or placebo 120 mL • 3. Cohort #2: total N=8 patients randomized 3:1 Compound 1 90 mg in 120 mL (0.75 mg/mL) or placebo 120 mL
• 1. Cohort #1: total N=˜97 patients randomized 2:1 Compound 1 36 mg in 120 mL (0.3 mg/mL) or placebo 120 mL • 2. Cohort #2: total N=˜97 patients randomized 2:1 Compound 1 60 mg in 120 mL (0.5 mg/mL) or placebo 120 mL
Subjects underwent unilateral total knee arthroplasty (replacement) (TKA). […]
Following surgery, patients were transferred to the PACU where they underwent an assessment of safety and efficacy over the next 96 (±4) hours. T0 is the time of admission into the PACU (as recorded in notes by the PACU nurse). The schedule of assessments was as follows: • Patients with inadequately controlled pain may request rescue at any time during T0 to D5; however, patients will be encouraged to receive rescue medication only with an NRS ≥4. • Pain intensity (assessed with NRS). • During the inpatient stay, NRS at rest beginning with the PACU admission was able to be assessed once the patient is awake. […] Scheduled NRS scores must be recorded regardless of timing of pre-rescue medication NRS scores and administration of rescue medication. The actual time of all NRS scores must be recorded, i.e., not the nominal time. • During the inpatient stay, evoked NRS twice daily after physical therapy (most preferred) or ambulation for approximately 10 yards (preferred) or transfers to/from bed or wheelchair. […]

[6] = bunionectomy, 4.2 mg (0.3 mg/mL)

COc1cc(CNC(=O)CCCC/C=C/C(C)C)ccc1O [Capsaicin]
solubility in aqueous media or local anesthetic solutions [1]: virtually insoluble

CNCC1CCCCN1C(=O)Oc1ccc(CNC(=O)CCCC/C=C/C(C)C)cc1OC (stereo not shown) [Compound 1, (E)-2-methoxy-4-((8-methylnon-6-enamido)methyl)phenyl 2-((methylamino)methyl)piperidine-1-carboxylate]
pain reduction ([2]; bunionectomy, 0.15 mg/mL (2.1 mg), FIG. 2): trend in pain reduction | reduction in opioid consumption ([2]; bunionectomy, 2.1 mg (0.15 mg/mL)): statistically significant reduction in opioid consumption | reduction in pain [2, 6]: statistically significant reduction in pain | reduction in opioid consumption [2, 6]: statistically significant reduction in opioid consumption | persistence of analgesic effect ([2]; bunionectomy, 4.2 mg, FIG. 4): ≥ 15 days | dose of maximum analgesic effect ([2]; bunionectomy, concentration of 0.3 mg/mL): 4.2 mg | reductions of pain and opioid consumption ([2]; single administration during surgery, bunionectomy patients): long lasting reductions of pain and opioid consumption | reductions in pain ([3]; 36 mg (0.3 mg/mL)): long lasting reductions in pain | reduction in pain at rest compared to placebo ([3]; 36 mg (0.3 mg/mL), FIG. 9): 21% | reduction in pain with coughing compared to placebo ([3]; 36 mg (0.3 mg/mL), FIG. 9): 46% | reduction in opioid consumption compared to placebo ([3]; FIG. 9): 26% | water solubility [4]: highly water-soluble | reductions in pain ([5]; 36 mg (0.3 mg/mL), FIG. 7): long lasting reductions in pain | reduction in opioid consumption ([5]; 36 mg (0.3 mg/mL), FIG. 8): significant reduction in opioid consumption | analgesic activity ([5]; 60 mg (0.5 mg/mL), compared with 36 mg): lower analgesic activity which was of a shorter duration
